Assay results taken from patent publication US20040013721A1, “Controlled and sustained release properties of polyelectrolyte multilayer capsules” (priority 2000, published 2004).

Assay: Permeability for probe polymers and dyes, and its temperature dependence, by confocal imaging
Format: physicochemical
Conditions: independent of their charge
Procedure: Monodisperse spheres (d=5.94 μm) of a weakly polymerized melamine-formaldehyde resin were used as templates (Microparticle GmbH). The particles were covered by alternating adsorption of sodium polystyrene sulfonate PSS (MW 70 000 g mol^−1, Aldrich) and polyallylamine hydrochloride PAH (MW 70 000 g mol^−1, Aldrich) from an aqueous solution of 10^−2 M PSS in 0.1 M sodium chloride. After 8 layers the core was dissolved in 0.1 M hydrochloric acid. The decomposition products were removed by washing with acid and an aqueous solution of 10^−2 M NaCl. Hollow polyelectrolyte capsules remained. […]
For the study of the permeability, fluorescence labeled polymers were used. […] The MW of the polymer was determined being 120 000 g/mol by gel permeation chromatography. […]
Laser scanning microscopy was performed for the determination of the loading grade of the capsules. […] The amounts of polymer/monomer in the interior were determined by integration of the fluorescence intensity inside the capsules. The exact concentration was taken from calibration curves, determined for each fluorescent probe separately. […]
The permeability of the capsules was studied for positively (PAH) and negatively charged (PSS), zwitterionic (albumine) and noncharged (dextran) fluorescent polymers (dextran). […] Then, the fluorescence intensity in the center of the capsules was measured by confocal imaging. […]

Row | penetration of the capsule wall by small dye molecules | Compound
1 | can penetrate the capsule wall | CN(C)c1ccc2cc3ccc(N(C)C)cc3nc2c1 [acridine orange]
2 | can penetrate the capsule wall | rhodamine
